The values below come from ChEMBL document CHEMBL4665758, “Identification of 5H-chromeno[3,4-c]pyridine and 6H-isochromeno[3,4-c]pyridine derivatives as potent and selective dual ROCK inhibitors” (Bioorg Med Chem Lett, 2020).

Sequence of Rho-associated protein kinase 1 (Q13464 whole entry): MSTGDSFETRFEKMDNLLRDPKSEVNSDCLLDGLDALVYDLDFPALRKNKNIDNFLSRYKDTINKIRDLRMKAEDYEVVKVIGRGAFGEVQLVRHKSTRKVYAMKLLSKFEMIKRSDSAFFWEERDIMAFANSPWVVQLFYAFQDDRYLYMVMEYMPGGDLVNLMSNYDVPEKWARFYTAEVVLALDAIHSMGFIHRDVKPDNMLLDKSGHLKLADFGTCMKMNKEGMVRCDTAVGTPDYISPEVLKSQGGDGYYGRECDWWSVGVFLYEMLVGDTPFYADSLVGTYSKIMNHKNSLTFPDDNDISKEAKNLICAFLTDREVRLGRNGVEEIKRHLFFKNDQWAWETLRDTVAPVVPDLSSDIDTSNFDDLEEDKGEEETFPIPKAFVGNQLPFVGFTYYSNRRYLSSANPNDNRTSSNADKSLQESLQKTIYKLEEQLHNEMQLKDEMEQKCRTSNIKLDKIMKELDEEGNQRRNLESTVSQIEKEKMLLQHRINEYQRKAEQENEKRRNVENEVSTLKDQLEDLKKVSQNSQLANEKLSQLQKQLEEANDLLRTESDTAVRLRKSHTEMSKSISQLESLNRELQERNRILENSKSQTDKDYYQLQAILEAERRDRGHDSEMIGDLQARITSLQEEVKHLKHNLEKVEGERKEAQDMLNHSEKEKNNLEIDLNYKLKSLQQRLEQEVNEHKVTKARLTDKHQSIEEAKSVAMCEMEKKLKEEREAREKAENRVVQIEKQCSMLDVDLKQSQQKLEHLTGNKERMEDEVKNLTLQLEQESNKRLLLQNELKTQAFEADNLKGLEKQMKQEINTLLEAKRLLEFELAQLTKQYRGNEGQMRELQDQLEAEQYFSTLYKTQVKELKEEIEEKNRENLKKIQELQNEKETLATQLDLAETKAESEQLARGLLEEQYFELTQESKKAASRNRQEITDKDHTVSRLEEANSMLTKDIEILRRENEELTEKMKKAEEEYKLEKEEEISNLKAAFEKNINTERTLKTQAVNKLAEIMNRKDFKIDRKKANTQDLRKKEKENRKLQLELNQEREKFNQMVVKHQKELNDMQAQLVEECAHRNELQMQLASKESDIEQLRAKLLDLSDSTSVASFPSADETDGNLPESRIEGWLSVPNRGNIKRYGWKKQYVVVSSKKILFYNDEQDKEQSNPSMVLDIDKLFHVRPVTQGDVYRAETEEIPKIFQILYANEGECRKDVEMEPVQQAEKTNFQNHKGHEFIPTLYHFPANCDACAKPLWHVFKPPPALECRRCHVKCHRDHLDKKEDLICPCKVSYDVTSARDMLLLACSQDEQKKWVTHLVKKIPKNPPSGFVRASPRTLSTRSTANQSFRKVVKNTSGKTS
Sequence of Rho-associated protein kinase 2 (O75116 whole entry): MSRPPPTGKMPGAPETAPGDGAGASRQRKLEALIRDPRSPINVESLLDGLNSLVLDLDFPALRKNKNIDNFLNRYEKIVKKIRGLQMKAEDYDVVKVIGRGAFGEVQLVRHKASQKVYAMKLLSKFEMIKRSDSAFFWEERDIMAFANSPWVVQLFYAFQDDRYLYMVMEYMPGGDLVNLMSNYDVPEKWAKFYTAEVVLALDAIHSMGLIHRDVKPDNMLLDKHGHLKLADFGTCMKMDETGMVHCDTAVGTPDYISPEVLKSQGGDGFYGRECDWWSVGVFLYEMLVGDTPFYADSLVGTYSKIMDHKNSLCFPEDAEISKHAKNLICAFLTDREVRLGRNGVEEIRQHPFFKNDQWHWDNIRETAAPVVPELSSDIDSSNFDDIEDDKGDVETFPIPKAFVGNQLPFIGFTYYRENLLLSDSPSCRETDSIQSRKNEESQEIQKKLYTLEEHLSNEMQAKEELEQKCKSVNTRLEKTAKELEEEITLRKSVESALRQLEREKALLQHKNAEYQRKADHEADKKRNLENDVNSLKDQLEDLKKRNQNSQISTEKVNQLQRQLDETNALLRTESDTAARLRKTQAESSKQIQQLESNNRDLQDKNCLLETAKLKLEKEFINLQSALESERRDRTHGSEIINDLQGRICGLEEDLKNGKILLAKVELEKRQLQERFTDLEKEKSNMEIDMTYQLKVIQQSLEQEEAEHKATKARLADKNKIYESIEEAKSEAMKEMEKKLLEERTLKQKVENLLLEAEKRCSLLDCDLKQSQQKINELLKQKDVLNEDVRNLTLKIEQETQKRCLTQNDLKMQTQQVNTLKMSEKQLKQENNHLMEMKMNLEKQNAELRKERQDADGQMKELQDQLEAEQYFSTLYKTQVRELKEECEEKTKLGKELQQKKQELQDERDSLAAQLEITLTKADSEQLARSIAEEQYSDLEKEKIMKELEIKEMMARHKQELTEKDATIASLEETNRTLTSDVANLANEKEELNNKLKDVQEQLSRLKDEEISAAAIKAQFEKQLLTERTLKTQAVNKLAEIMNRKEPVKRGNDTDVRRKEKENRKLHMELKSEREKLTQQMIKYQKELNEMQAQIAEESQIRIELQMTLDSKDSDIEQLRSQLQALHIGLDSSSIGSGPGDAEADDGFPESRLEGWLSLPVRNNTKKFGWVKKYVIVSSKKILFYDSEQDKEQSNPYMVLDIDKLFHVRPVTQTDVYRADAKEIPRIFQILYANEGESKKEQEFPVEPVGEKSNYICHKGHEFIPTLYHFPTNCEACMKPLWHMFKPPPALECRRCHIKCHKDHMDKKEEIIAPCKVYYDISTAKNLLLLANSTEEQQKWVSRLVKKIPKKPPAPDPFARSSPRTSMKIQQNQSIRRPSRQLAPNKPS

One assay has as its target Rho-associated protein kinase 1 (Homo sapiens, UniProt Q13464).
`COc1cccc(C(C)NC(=O)c2ccc3c(c2)OCc2cnccc2-3)n1` (configuration not stated) had an IC50 of 27 nM. That is a double-digit nanomolar value. Same read-out and setting: the result for `COc1cccc([C@@H](C)NC(=O)c2ccc3c(c2)COc2cncnc2-3)c1` reads 38 nM; that for `CCC1Oc2cnccc2-c2ccc(C(=O)N[C@H](C)c3cccc(OC)c3)cc21` (mixture of isomers), 0.63 nM. `COc1cccc([C@@H](C)NC(=O)c2ccc3c(c2)COc2cnc(N)cc2-3)c1`: 171 nM corresponded to half-maximal inhibition (IC50). Same read-out and setting: for `COc1cccc([C@@H](C)NC(=O)c2ccc3c(c2)C(C2CC2)Oc2cnccc2-3)c1` (some centres not stated) the value was 4.1 nM; for `CCNC(=O)c1cc(CNC(=O)c2ccc3c(c2)C(CC)Oc2cnccc2-3)ccc1F` (racemic), 20 nM; for `C[C@@H](NC(=O)c1ccc2c(c1)OCc1cnccc1-2)c1ccccc1`, 18 nM. Still for that read-out and setting: the result for `CCC1Oc2cnccc2-c2ccc(C(=O)N[C@H](C)c3cccc(OC)c3)cc21` (stereo in doubt; 18) reads 2 nM; that for `CCN1CCC[C@H]1CNC(=O)c1cccc(CNC(=O)c2ccc3c(c2)C(C)Oc2cnccc2-3)c1` (mixture of isomers), 1.2 nM; that for `COc1cccc([C@@H](C)NC(=O)c2ccc3c(c2)OC(C)c2cnccc2-3)c1` (mixture of isomers), 15 nM. Turning to `O=C(Cc1ccccc1)Nc1ccc2c(c1)OCc1cnccc1-2`, the IC50 worked out at 140 nM. On the same count and under the same terms, the result for `N[C@H](Cc1ccccc1)C(=O)Nc1ccc2c(c1)OCc1cnccc1-2` reads 19 nM; that for `COc1cccc([C@@H](C)NC(=O)c2ccc3c(c2)C(C)Oc2cnccc2-3)c1` (some centres not stated), 0.49 nM; that for `N[C@@H](C(=O)Nc1ccc2c(c1)OCc1cnccc1-2)c1ccccc1`, 16 nM. Compound `CCC1Oc2cnccc2-c2ccc(C(=O)N[C@H](C)c3cccc(OC)c3)cc21` (stereo in doubt; 19) returned an IC50 of 0.67 nM. Compared with the last compound, the IC50 is about 24-fold lower. As to `N[C@@H](COc1ccc2c(c1)OCc1cnccc1-2)Cc1ccccc1`, it took 71 nM to reach half-maximal inhibition (IC50).

The next assay concerns the target Rho-associated protein kinase 2 (Homo sapiens, UniProt O75116).
`C[C@H]1CNCCCN1S(=O)(=O)c1cccc2cncc(F)c12`: inhibition was half-maximal at 20 nM (IC50).

As usually defined, the IC50 is the point on the concentration scale where inhibition reaches its midpoint.
